Literature values in US20250151766A1, “SWEETENED COMPOSITION AND PREPARATION METHOD AND USE THEREOF” (GUILIN LAYN NATURAL INGREDIENTS CORP., priority 2022, published 2025).

Settings: general statement in the description

O=C(CO)[C@@H](O)[C@H](O)[C@H](O)CO [fructose]
sweetness: 1.5 ×
